Experimental data taken from PMC9024338, “Bruceine H Mediates EGFR-TKI Drug Persistence in NSCLC by Notch3-Dependent β-Catenin Activating FOXO3a Signaling” (Frontiers in Oncology, 2022).

What was measured:
[1] = system: A549 cells; assay: cells; type: cell-based, human; conditions: A549, 48 h; read-out: IC50 (48 h)
Description: (§1) The human NSCLC cell lines (A549, PC-9, and PC-9/GR) and other cell lines (16HBE and LO2) were purchased from the American Type Culture Collection (ATCC, Manassas, VA, USA). […] All cell lines were cultivated at 37°C under 5% CO2.
(§2) The Cell Counting Kit-8 assays (Beyotime, Shanghai, China) were performed to assess cell viability. […] Microplate readers (Infinite F500, Tecan, Mannedorf, Switzerland) were used to measure the absorbance (A) at 450 nm. All samples were assessed in triplicate.

[2] = system: PC-9 cells; assay: cells; type: cell-based, human; conditions: PC-9, 48 h; read-out: IC50
Description: as §1, §2

[3] = system: A549 cells; assay: Transwell migration and Matrigel invasion assays; type: cell-based, human; conditions: dose-dependent, 12 h treatment
Description: The Transwell insert in a 24-well plate (8 μm, Corning, NY, USA) was taken out, and a 600-μl medium containing 10% FBS was added to the bottom chamber. The A549 cells were resuspended with 10% FBS culture medium, and the diluted cell suspension (3 × 10^5/300 μl) was cultured in the top chamber and then incubated with or without Matrigel (BD BioCoat). After 12 h, the medium in the top chamber was changed to RPMI-1640 without FBS, and BD or BH with different concentrations was added ([31]). After an additional 12 h, the cells that migrated or invaded the bottom side of the polycarbonate film were fixed with methanol for 30 min and then stained for 15 min with 0.1% crystal violet (Solarbio), after which their number was assessed under a microscope (×4, Nikon).

[4] = system: 16HBE cells; assay: Toxicity to normal human cell line 16HBE (Figure S1); type: cell-based
Description: (§3) Figure S1. The toxicity of Bruceine H (BH) and Bruceine D (BD) to 16HBE (A) and LO2 (B) cells was evaluated.

[5] = system: LO2 cells; assay: Toxicity to normal human cell line LO2 (Figure S1); type: cell-based
Description: as §3

[6] = system: PC-9/GR cells; assay: Apoptosis by flow cytometry (Annexin V-FITC/PI), PC-9/GR; type: cell-based, human; conditions: low-dose BH (4, 8 μM), gefitinib 25 μM, alone or combined
Description: After being digested with trypsin without EDTA, the cells were washed gently with culture medium and twice with cold PBS. The pellet was resuspended in 400 μl of 1× binding buffer, the resuspended cells were transferred to flow tubes, then Annexin V-FITC (5 μl) and propidium iodide (10 μl) were added, and the mixture was incubated for 15 min at room temperature in the dark. The percentage of apoptotic cells was determined by flow cytometry (Backman, CA, USA) and FlowJo V10 software.

[7] = system: PC-9/GR xenografts; assay: PC-9/GR xenografts in BALB/c nude mice; type: in vivo; conditions: BH 2.5 mg/kg, gefitinib 25 mg/kg, alone or co-administered, intragastric
[8] = Toxicity study in nude mice: organ index, blood routine, serum biochemistry; type: in vivo
Description: At the end of the experiment, blood samples were taken and analyzed by blood routine. […] The lungs and spleen were weighed and recorded. H&E staining of the heart, liver, spleen, lungs, and kidneys was performed to evaluate the cytotoxic effects of BH.

[9] = nude mice serum, mean ± SD (Table S4)
[10] = nude mice, routine blood (Table S3)

For `CC1=CC(=O)[C@@H](O)[C@]2(C)[C@H]3[C@@H](O)[C@H](O)[C@@]4(C)OC[C@@]35[C@@H](C[C@@H]12)OC(=O)[C@H](O)[C@]54O` [BD, bruceine D, reference compound], the IC50 [1] was 26.8 µM, the IC50 [2] was 21.8 µM and the “Transwell migration and invasion of A549” value [3] was “significant anti-invasive and antimigratory actions”. The “toxicity to 16HBE cells” value [4] was “higher sensitivity” and the “toxicity to LO2 cells” value [5] was “higher sensitivity”.

With `COc1cc2ncnc(Nc3ccc(F)c(Cl)c3)c2cc1OCCCN1CCOCC1` [Gef, Gefitinib, reference compound] the “apoptosis of PC-9/GR cells” value [6] was “little effects”, the “tumor growth of PC-9/GR xenografts” value [7] was “slight inhibitory effect” and the HDL-C [8, 9] was 0.74 ± 0.28 mmol/L. The LDL-C [8, 9] was 0.89 ± 0.45 mmol/L, the TC [8, 9] was 3.49 ± 0.56 mmol/L and the TG [8, 9] was 0.74 ± 0.16 mmol/L. For the same molecule, the GR [8, 10] was 4.593±2.519 ×10^9/L, the “GR (%)” value [8, 10] was 83.467±4.674% and the HCT [8, 10] was 50.933±6.123%. For the same molecule, the HGB [8, 10] was 148.667 ± 17.616 g/L, the LY [8, 10] was 1.017±0.533 ×10^9/L and the “LY (%)” value [8, 10] was 14.2±2.685%. For the same molecule, the MCH [8, 10] was 15.367 ± 0.306 pg, the MCHC [8, 10] was 292 ± 2.646 g/L and the MO [8, 10] was 0.213±0.274 ×10^9/L. For the same molecule, the “MO (%)” value [8, 10] was 5.067±1.582%, the MPV [8, 10] was 6.933 ± 0.351 fL and the PCT [8, 10] was 0.653±0.110 mL/L. For the same molecule, the PLT [8, 10] was 934.333±117.1 ×10^9/L, the RBC [8, 10] was 9.687±1.162 ×10^12/L and the WBC [8, 10] was 6.483±1.439 ×10^8/L.
